Assay results taken from paper PMC4441267.

Assay: CuAAC macrocyclisation of azide/terminal alkyne linear peptidomimetics to 1,4-triazole (CuI 2 eq, DIPEA 3 eq, Ar-degassed), then Boc removal (TMSCl/MeOH GP4; HCl/dioxane GP5 for A13w, J13w)
Conditions: THF (reflux), 1.2 mM, 66.0 °C, 18.0 h, 2 steps

## COC(=O)[C@@H]1CNC(=O)[C@H](Cc2ccccc2)n2cc(nn2)CCCC(=O)NC[C@H](NC(=O)OC(C)(C)C)C(=O)N1 [Boc-Dap(5-hexynoyl)-Dap(N3-Phe)-OMe]
From C#CCCCC(=O)NC[C@H](NC(=O)OC(C)(C)C)C(=O)N[C@@H](CNC(=O)[C@H](Cc1ccccc1)N=[N+]=[N-])C(=O)OC, 17-membered ring
  ring closure, yield over several steps: 99%

## COC(=O)[C@@H]1CCCCNC(=O)[C@H](Cc2ccccc2)n2cc(nn2)CCCC(=O)NC[C@H](NC(=O)OC(C)(C)C)C(=O)N1 [Boc-Dap(5-hexynoyl)-Lys(N3-Phe)-OMe]
From C#CCCCC(=O)NC[C@H](NC(=O)OC(C)(C)C)C(=O)N[C@@H](CCCCNC(=O)[C@H](Cc1ccccc1)N=[N+]=[N-])C(=O)OC, 20-membered ring
  ring closure, yield over several steps: 99%

## COC(=O)[C@@H]1CCCn2cc(nn2)CCCC(=O)NC[C@H](NC(=O)OC(C)(C)C)C(=O)N1 [Boc-Dap(5-hexynoyl)-Orn(N3)-OMe]
From C#CCCCC(=O)NC[C@H](NC(=O)OC(C)(C)C)C(=O)N[C@@H](CCCN=[N+]=[N-])C(=O)OC, 16-membered ring
  ring closure, yield over several steps: 52%

## COC(=O)[C@@H]1CNC(=O)[C@H](Cc2ccccc2)n2cc(nn2)CNC(=O)NC[C@H](NC(=O)OC(C)(C)C)C(=O)N1 [Boc-Dap(CONH-propargyl)-Dap(N3-Phe)-OMe]
From C#CCNC(=O)NC[C@H](NC(=O)OC(C)(C)C)C(=O)N[C@@H](CNC(=O)[C@H](Cc1ccccc1)N=[N+]=[N-])C(=O)OC, 16-membered ring
  ring closure, yield over several steps: 99%

## COC(=O)[C@@H]1CCCn2cc(nn2)CNC(=O)NC[C@H](NC(=O)OC(C)(C)C)C(=O)N[C@H](C(=O)OC)CCC(=O)N1 [Boc-Dap(CONH-propargyl)-Glu(gamma-Orn(N3)-OMe)-OMe]
From C#CCNC(=O)NC[C@H](NC(=O)OC(C)(C)C)C(=O)N[C@@H](CCC(=O)N[C@@H](CCCN=[N+]=[N-])C(=O)OC)C(=O)OC, 20-membered ring
  ring closure, yield over several steps: 78%

## COC(=O)[C@@H]1CCCCn2cc(nn2)CNC(=O)NC[C@H](NC(=O)OC(C)(C)C)C(=O)N1 [Boc-Dap(CONH-propargyl)-Lys(N3)-OMe]
From C#CCNC(=O)NC[C@H](NC(=O)OC(C)(C)C)C(=O)N[C@@H](CCCCN=[N+]=[N-])C(=O)OC, 16-membered ring
  ring closure, yield over several steps: 56%

## COC(=O)[C@@H]1CCCCNC(=O)[C@H](Cc2ccccc2)n2cc(nn2)CNC(=O)NC[C@H](NC(=O)OC(C)(C)C)C(=O)N1 [Boc-Dap(CONH-propargyl)-Lys(N3-Phe)-OMe]
From C#CCNC(=O)NC[C@H](NC(=O)OC(C)(C)C)C(=O)N[C@@H](CCCCNC(=O)[C@H](Cc1ccccc1)N=[N+]=[N-])C(=O)OC, 19-membered ring
  ring closure, yield over several steps: 99%

## COC(=O)[C@@H]1CNC(=O)[C@H](Cc2ccccc2)n2cc(nn2)CCC(=O)NCCCC[C@H](NC(=O)OC(C)(C)C)C(=O)N1 [Boc-Lys(4-pentynoyl)-Dap(N3-Phe)-OMe]
From C#CCCC(=O)NCCCC[C@H](NC(=O)OC(C)(C)C)C(=O)N[C@@H](CNC(=O)[C@H](Cc1ccccc1)N=[N+]=[N-])C(=O)OC, 19-membered ring
  ring closure, yield over several steps: 98%

## COC(=O)[C@@H]1CCCn2cc(nn2)CCC(=O)NCCCC[C@H](NC(=O)OC(C)(C)C)C(=O)N[C@H](C(=O)OC)CCC(=O)N1 [Boc-Lys(4-pentynoyl)-Glu(gamma-Orn(N3)-OMe)-OMe]
From C#CCCC(=O)NCCCC[C@H](NC(=O)OC(C)(C)C)C(=O)N[C@@H](CCC(=O)N[C@@H](CCCN=[N+]=[N-])C(=O)OC)C(=O)OC, 23-membered ring
  ring closure, yield over several steps: 86%

## COC(=O)[C@@H]1CCCCn2cc(nn2)CCC(=O)NCCCC[C@H](NC(=O)OC(C)(C)C)C(=O)N1 [Boc-Lys(4-pentynoyl)-Lys(N3)-OMe]
From C#CCCC(=O)NCCCC[C@H](NC(=O)OC(C)(C)C)C(=O)N[C@@H](CCCCN=[N+]=[N-])C(=O)OC, 19-membered ring
  ring closure, yield over several steps: 30%

## COC(=O)[C@@H]1CCCn2cc(nn2)CCC(=O)NCCCC[C@H](NC(=O)OC(C)(C)C)C(=O)N1 [Boc-Lys(4-pentynoyl)-Orn(N3)-OMe]
From C#CCCC(=O)NCCCC[C@H](NC(=O)OC(C)(C)C)C(=O)N[C@@H](CCCN=[N+]=[N-])C(=O)OC, 18-membered ring
  ring closure, yield over several steps: 99%

## COC(=O)[C@@H]1CNC(=O)[C@H](Cc2ccccc2)n2cc(nn2)CCCC(=O)NCCCC[C@H](NC(=O)OC(C)(C)C)C(=O)N1 [Boc-Lys(5-hexynoyl)-Dap(N3-Phe)-OMe]
From C#CCCCC(=O)NCCCC[C@H](NC(=O)OC(C)(C)C)C(=O)N[C@@H](CNC(=O)[C@H](Cc1ccccc1)N=[N+]=[N-])C(=O)OC, 20-membered ring
  ring closure, yield over several steps: 61%

## COC(=O)[C@@H]1CCCCn2cc(nn2)CCCC(=O)NCCCC[C@H](NC(=O)OC(C)(C)C)C(=O)N1 [Boc-Lys(5-hexynoyl)-Lys(N3)-OMe]
From C#CCCCC(=O)NCCCC[C@H](NC(=O)OC(C)(C)C)C(=O)N[C@@H](CCCCN=[N+]=[N-])C(=O)OC, 20-membered ring
  ring closure, yield over several steps: 98%

## COC(=O)[C@@H]1CCCCNC(=O)[C@H](Cc2ccccc2)n2cc(nn2)CCCC(=O)NCCCC[C@H](NC(=O)OC(C)(C)C)C(=O)N1 [Boc-Lys(5-hexynoyl)-Lys(N3-Phe)-OMe]
From C#CCCCC(=O)NCCCC[C@H](NC(=O)OC(C)(C)C)C(=O)N[C@@H](CCCCNC(=O)[C@H](Cc1ccccc1)N=[N+]=[N-])C(=O)OC, 23-membered ring
  ring closure, yield over several steps: 54%

## COC(=O)[C@@H]1CCCn2cc(nn2)CCCC(=O)NCCCC[C@H](NC(=O)OC(C)(C)C)C(=O)N1 [Boc-Lys(5-hexynoyl)-Orn(N3)-OMe]
From C#CCCCC(=O)NCCCC[C@H](NC(=O)OC(C)(C)C)C(=O)N[C@@H](CCCN=[N+]=[N-])C(=O)OC, 19-membered ring
  ring closure, yield over several steps: 40%

## COC(=O)[C@@H]1CNC(=O)[C@H](Cc2ccccc2)n2cc(nn2)CNC(=O)NCCCC[C@H](NC(=O)OC(C)(C)C)C(=O)N1 [Boc-Lys(CONH-propargyl)-Dap(N3-Phe)-OMe]
From C#CCNC(=O)NCCCC[C@H](NC(=O)OC(C)(C)C)C(=O)N[C@@H](CNC(=O)[C@H](Cc1ccccc1)N=[N+]=[N-])C(=O)OC, 19-membered ring
  ring closure, yield over several steps: 70%

## COC(=O)[C@@H]1CCCCNC(=O)[C@H](Cc2ccccc2)n2cc(nn2)CNC(=O)NCCCC[C@H](NC(=O)OC(C)(C)C)C(=O)N1 [Boc-Lys(CONH-propargyl)-Lys(N3-Phe)-OMe]
From C#CCNC(=O)NCCCC[C@H](NC(=O)OC(C)(C)C)C(=O)N[C@@H](CCCCNC(=O)[C@H](Cc1ccccc1)N=[N+]=[N-])C(=O)OC, 22-membered ring
  ring closure, yield over several steps: 99%

## COC(=O)[C@@H]1CCCn2cc(nn2)CNC(=O)NCCCC[C@H](NC(=O)OC(C)(C)C)C(=O)N1 [Boc-Lys(CONH-propargyl)-Orn(N3)-OMe]
From C#CCNC(=O)NCCCC[C@H](NC(=O)OC(C)(C)C)C(=O)N[C@@H](CCCN=[N+]=[N-])C(=O)OC, 18-membered ring
  ring closure, yield over several steps: 93%

## COC(=O)[C@@H]1CNC(=O)[C@H](Cc2ccccc2)n2cc(nn2)CCC(=O)NCCC[C@H](NC(=O)OC(C)(C)C)C(=O)N1 [Boc-Orn(4-pentynoyl)-Dap(N3-Phe)-OMe]
From C#CCCC(=O)NCCC[C@H](NC(=O)OC(C)(C)C)C(=O)N[C@@H](CNC(=O)[C@H](Cc1ccccc1)N=[N+]=[N-])C(=O)OC, 18-membered ring
  ring closure, yield over several steps: 45%

## COC(=O)[C@@H]1CCCCn2cc(nn2)CCC(=O)NCCC[C@H](NC(=O)OC(C)(C)C)C(=O)N1 [Boc-Orn(4-pentynoyl)-Lys(N3)-OMe]
From C#CCCC(=O)NCCC[C@H](NC(=O)OC(C)(C)C)C(=O)N[C@@H](CCCCN=[N+]=[N-])C(=O)OC, 18-membered ring
  ring closure, yield over several steps: 93%

## COC(=O)[C@@H]1CCCCNC(=O)[C@H](Cc2ccccc2)n2cc(nn2)CCC(=O)NCCC[C@H](NC(=O)OC(C)(C)C)C(=O)N1 [Boc-Orn(4-pentynoyl)-Lys(N3-Phe)-OMe]
From C#CCCC(=O)NCCC[C@H](NC(=O)OC(C)(C)C)C(=O)N[C@@H](CCCCNC(=O)[C@H](Cc1ccccc1)N=[N+]=[N-])C(=O)OC, 21-membered ring
  ring closure, yield over several steps: 88%

## COC(=O)[C@@H]1CCCn2cc(nn2)CCC(=O)NCCC[C@H](NC(=O)OC(C)(C)C)C(=O)N1 [Boc-Orn(4-pentynoyl)-Orn(N3)-OMe]
From C#CCCC(=O)NCCC[C@H](NC(=O)OC(C)(C)C)C(=O)N[C@@H](CCCN=[N+]=[N-])C(=O)OC, 17-membered ring
  ring closure, yield over several steps: 85%

## COC(=O)[C@@H]1CNC(=O)[C@H](Cc2ccccc2)n2cc(nn2)CCCC(=O)NCCC[C@H](NC(=O)OC(C)(C)C)C(=O)N1 [Boc-Orn(5-hexynoyl)-Dap(N3-Phe)-OMe]
From C#CCCCC(=O)NCCC[C@H](NC(=O)OC(C)(C)C)C(=O)N[C@@H](CNC(=O)[C@H](Cc1ccccc1)N=[N+]=[N-])C(=O)OC, 19-membered ring
  ring closure, yield over several steps: 99%

## COC(=O)[C@@H]1CCCCn2cc(nn2)CCCC(=O)NCCC[C@H](NC(=O)OC(C)(C)C)C(=O)N1 [Boc-Orn(5-hexynoyl)-Lys(N3)-OMe]
From C#CCCCC(=O)NCCC[C@H](NC(=O)OC(C)(C)C)C(=O)N[C@@H](CCCCN=[N+]=[N-])C(=O)OC, 19-membered ring
  ring closure, yield over several steps: 99%
